Results published in US20070276030A1, “Pyranobenzothiophene derivatives to treat infection with hepatitis c virus” (priority 2003, published 2007).
Where two headings read alike, the source gives them in different places.

Experiments:
[1] = biological target: T1, HCV RdRp NS5B d21BK (BK strain, genotype 1b) (Hepatitis C virus genotype 1b, UniProt P26663); experiment: Hepatitis C polymerase (NS5B) inhibition, radioactive filter assay; type: biochemical; settings: for inhibition at 20 µM: read-out: HCV pol % inh at 20 μM
T1 construct: NS5B from the BK strain (genotype 1b) is expressed in E. coli as a protein in which the 21 C-terminal amino acids are replaced; made in house; host or cells: E. coli
T1 sequence (P26663 2420-2989): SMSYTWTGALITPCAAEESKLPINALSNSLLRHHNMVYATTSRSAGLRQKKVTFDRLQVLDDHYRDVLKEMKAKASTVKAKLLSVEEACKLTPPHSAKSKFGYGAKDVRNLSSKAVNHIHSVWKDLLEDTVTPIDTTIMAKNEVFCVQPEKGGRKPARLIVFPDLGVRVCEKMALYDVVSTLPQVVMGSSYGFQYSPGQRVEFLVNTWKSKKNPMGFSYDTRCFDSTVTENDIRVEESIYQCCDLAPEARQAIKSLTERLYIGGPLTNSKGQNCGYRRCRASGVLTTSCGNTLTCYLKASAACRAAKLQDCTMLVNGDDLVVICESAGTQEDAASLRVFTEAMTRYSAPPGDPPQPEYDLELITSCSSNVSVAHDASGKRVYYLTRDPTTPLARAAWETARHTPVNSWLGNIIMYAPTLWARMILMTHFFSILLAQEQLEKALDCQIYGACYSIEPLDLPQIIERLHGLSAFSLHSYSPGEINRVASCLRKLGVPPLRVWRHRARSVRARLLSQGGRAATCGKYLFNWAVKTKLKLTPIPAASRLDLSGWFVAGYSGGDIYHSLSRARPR
Text: The ability of the compounds of the present invention to inhibit Hepatitis C Polymerase was established by the following experimental procedure:
NS5B from the BK strain (genotype 1b) is expressed in E. coli as a protein in which the 21 C-terminal amino acids are replaced with a short linker and a hexahistidine tag ([…]). The purified protein is mixed with radioactive nucleotides and allowed to replicate a heteropolymeric RNA substrate, primed by an endogenous short hairpin, resulting in an approximately 760 nt product. The radioactive product is captured on a filter and quantitated after removal of the unincorporated nucleotides.
Dilute nucleotides 1:1000 to 10 μM (GTP and CTP) or 1:100 to 100 μM (ATP and UTP) into RNase free water.
(1) Compounds 10 μl at 10 μg/ml in 15% Dimethylsulfoxide (DMSO)
Add 20 μl enzyme mix into each well of the assay plate. Incubate compound and enzyme at room temperature for 15 minutes.
(3) Template Mix—Prepare Ahead
Spin down a tube of RNA (5 μg/tube stored in 75% ethanol and 0.3 M sodium acetate) in a microcentrifuge for 20 minutes at 4° C. One tube is enough for 1-1.5 plates. Remove as much ethanol from the tube as possible by inverting the tube. Be gentle, pellet RNA may not adhere to the tube. Vacuum dry the RNA. Resuspend the RNA by adding 1 ml of DEPC water, close the cap of the tube tightly. To dissolve RNA, incubate RNA solution on ice for ˜60 minutes and gently vortex. Spin briefly to ensure all RNA solution is down to the bottom of the tube before opening cap. Gently transfer RNA solution into a 5 ml or larger tube. Add another 3 ml of DEPC water (total 4 ml of volume).
Add the following volumes of reagents
Add 20 μl template mix per reaction (i.e. 20 ng of pOF per reaction or ˜3 nM). (4) Incubate reaction at room temperature (22-25° C.) for 2 hours. (5) Stop reaction by adding 50 μl of 170 mM EDTA.
Final concentration of EDTA is 85 mM.
(6) Prewet filters of Millipore multiscreen assay plate by adding […] of 0.5 M sodium phosphate buffer, pH 7.0 into each well. Let stand at room temperature for 2-3 minutes.
(7) Place the multiscreen filter plate onto a Millipore Manifold and turn on vacuum to allow buffer to flow through. Turn off vacuum. Transfer 80 μl of the reaction product into each well of the filter plate. Let stand for 2-3 minutes. Turn on vacuum to filter reaction product.
(8) Turn off vacuum. Add 200 μl of 0.5 M sodium phosphate buffer, pH 7.0 into each well to wash filter. Turn on vacuum.
Repeat step (8) three more times.
(9) Remove polypropylene bottom. Spot dry filter at the bottom with paper towel. Air dry filter plate on a bench for 1 hour. Add 40 μl Super Mix scintillant. Seal top of the plate with a tape. Place plate into a Packard carrier or micro-beta carrier.
(10) Count plate using a Packard Topcount or micro-beta counter. Count (for example using Program 10) for ^33P in Top count or ^33P program in micro-beta.
Percent inhibition is calculated after background subtraction as a percent reduction of activity relative to the positive control (average value of the plate excluding the negative controls). For the primary screen hits were chosen as showing ≧75% inhibition.
See. Ferrari et al. 1999. J. Virology 73:1649-1654: “Characterization of soluble Hepatitis C virus RNA-dependent RNA polymerase expressed in E. coli and Takamizawa et all 1991” and J. Virology 65:1105-1113: “Structure and characterization of the Hepatitis C virus genome isolated from human carriers,” both references are hereby incorporated by reference in their entireties, specifically methods of testing inhibition of Hepatitis C Polymerase with test compounds.

[2] = U.S. Pat. No. 4,021,451; cited from earlier work

Row | Structure (SMILES) | IC50 [1] | inhibition at 20 µM [1] | IC50 ([1]; NS5B BK strain, read-out: HCV pol BK IC50) | biological activity such as antiinflammatory or antibacterial or antifungal activity [2]
1 | CCCC1(CC(=O)O)OCCc2c1sc1c(C)ccc(Br)c21 (stereo not drawn) [Example 1, (5-bromo-8-methyl-1-propyl-3,4-dihydro-1H-[1]benzothieno[2,3-c]pyran-1-yl)acetic acid] | 180 nM | – | – | –
2 | CCCC1(CC(=O)O)OCCc2c1sc1c(C)ccc(C#N)c21 (stereo not drawn) [Example 2, (5-cyano-8-methyl-1-propyl-3,4-dihydro-1H-[1]benzothieno[2,3-c]pyran-1-yl)acetic acid] | 17700 nM | – | – | –
3 | CCC[C@]1(CC(=O)O)OCCc2c1sc1c(C)ccc(C#N)c21 [Example 3, [(1R)-5-cyano-8-methyl-1-propyl-3,4-dihydro-1H-[1]benzothieno[2,3-c]pyran-1-yl]acetic acid] | 620 nM | – | – | –
4 | CCC[C@@]1(CC(=O)O)OCCc2c1sc1c(C)ccc(C#N)c21 [Example 4, [(1S)-5-cyano-8-methyl-1-propyl-3,4-dihydro-1H-[1]benzothieno[2,3-c]pyran-1-yl]acetic acid] | 1900 nM | – | – | –
5 | CCCC1(CC(=O)O)OCCc2c1sc1c(Cl)ccc(Cl)c21 (stereo not drawn) [Example 5, (5,8-dichloro-1-propyl-3,4-dihydro-1H-[1]benzothieno[2,3-c]pyran-1-yl)acetic acid] | > 20000 nM | < 10% | – | –
6 | CC1(CC(=O)O)OCCc2c1sc1c(Cl)ccc(Cl)c21 (stereo not drawn) [Example 6, (5,8-chloro-1-methyl-3,4-dihydro-1H-[1]benzothieno[2,3-c]pyran-1-yl)acetic acid] | – | – | 280 nM | –
7 | CCCCC1(CC(=O)O)OCCc2c1sc1c(Cl)ccc(Cl)c21 (stereo not drawn) [Example 7, (1-butyl-5,8-dichloro-3,4-dihydro-1H-[1]benzothieno[2,3-c]pyran-1-yl)acetic acid] | 320 nM | – | – | –
8 | CCC1(CC(=O)O)OCCc2c1sc1c(Cl)ccc(Cl)c21 (stereo not drawn) [Example 8, (5,8-dichloro-1-ethyl-3,4-dihydro-1H-[1]benzothieno[2,3-c]pyran-1-yl)acetic acid] | 170 nM | – | – | –
9 | CCCC1(CC(=O)O)OCCc2c1sc1c(C)cc(F)cc21 (stereo not drawn) [Example 9, (6-fluoro-8-methyl-1-propyl-3,4-dihydro-1H-[1]benzothieno[2,3-c]pyran-1-yl)acetic acid] | 2900 nM | – | – | –
10 | CCCC1(CC(=O)O)OCCc2c1sc1c(C)cc(F)c(C#N)c21 (stereo not drawn) [Example 10, (5-cyano-6-fluoro-8-methyl-1-propyl-3,4-dihydro-1H-[1]benzothieno[2,3-c]pyran-1-yl)acetic acid] | 130 nM | – | – | –
11 | CCC[C@@]1(CC(=O)O)OCCc2c1sc1c(C)cc(F)c(C#N)c21 [Example 12, [(1S)-5-cyano-6-fluoro-8-methyl-1-propyl-3,4-dihydro-1H-[1]benzothieno[2,3-c]pyran-1-yl]acetic acid] | 5400 nM | – | – | –
12 | CC1(CC(=O)O)OCCc2c1sc1ccccc21 (stereo not drawn) [Example 13, (1-methyl-3,4-dihydro-1H-[1]benzothieno[2,3-c]pyran-1-yl)acetic acid] | > 20000 nM | < 10% | – | –
13 | CCC1(CC(=O)O)OCCc2c1sc1ccccc21 (stereo not drawn) [Example 14, (1-ethyl-3,4-dihydro-1H-[1]benzothieno[2,3-c]pyran-1-yl)acetic acid] | > 20000 nM | < 10% | – | –
14 | CCCC1(CC(=O)O)OCCc2c1sc1ccccc21 (stereo not drawn) [Example 15, (1-propyl-3,4-dihydro-1H-[1]benzothieno[2,3-c]pyran-1-yl)acetic acid] | > 20000 nM | < 10% | – | –
15 | CCCCC1(CC(=O)O)OCCc2c1sc1ccccc21 (stereo not drawn) [Example 16, (1-butyl-3,4-dihydro-1H-[1]benzothieno[2,3-c]pyran-1-yl)acetic acid] | > 20000 nM | < 10% | – | –
16 | O=C(O)CC1(c2ccccc2)OCCc2c1sc1ccccc21 (stereo not drawn) [Example 17, (1-phenyl-3,4-dihydro-1H-[1]benzothieno[2,3-c]pyran-1-yl)acetic acid] | > 20000 nM | 27% | – | –
17 | CC(C)C1(CC(=O)O)OCCc2c1sc1ccccc21 (stereo not drawn) [Example 18, (1-isopropyl-3,4-dihydro-1H-[1]benzothieno[2,3-c]pyran-1-yl)acetic acid] | > 20000 nM | < 10% | – | –
18 | CCOC(=O)CC1(CC(=O)O)OCCc2c1sc1ccccc21 (stereo not drawn) [Example 19, [1-(2-ethoxy-2-oxoethyl)-3,4-dihydro-1H-[1]benzothieno[2,3-c]pyran-1-yl]acetic acid] | > 20000 nM | < 10% | – | –
19 | CC1(c2ccc(CC(=O)O)cc2)OCCc2c1sc1ccccc21 (stereo not drawn) [[p-(3,4-dihydro-1-methyl-1H-[1]benzothieno[2,3-c]pyran-1-yl)phenyl]-acetic acid] | – | – | – | lacks any biological activity
